From patent publication US10300026B2, “Use of dihydroxyacetone in preparation of anti-cancer medicaments” (priority 2015, dated 2019)
Read-outs that look alike come from different tables or passages of the source.

Key:
[1] = test system: SW480; experiment: CellTiter-Glo cell viability, SW480 (human colorectal cancer cell); format: cell-based
Protocol: (§1) 15 g of the commercially available 1,3-dihydroxyacetone in the solid powder form was added into 100 mL of 5% glucose (infusion bottle), then filled into 100 bottles.
(§2) After digesting the cells and counting (counting suspended cells directly), the cells were diluted to 1.25×10^5 cells/ml, inoculated into a 384-well plate (5000 cells/well) with 40 μl per well, centrifuged at 1500 rpm for 1 min, placed into the incubator and incubated overnight.
(§3) The medicaments were diluted in gradient with a 5% glucose solution to 5×, respectively. Each well was dosed with 10 μl medicament, with 4 wells (n=4) for each concentration. The cell viability was measured with Luminescence Cell Viability Assay kit after incubating for 72 hours in an incubator.
(§4) CellTiter-Glo reagent was added into each well, the volume of which is the same as that of medium. It was shaked on a shaker for 5 min, centrifuged at 1500 rpm for 1 min, and incubated in the dark at room temperature for 15 min. Then the chemiluminescence was detected with BMG PHERAstar.
(§5) The cell viability was calculated by using the following formula: Cell viability (Viability %)=100%×(LUMsample to be measured−LUMblank)/(LUMsolvent control−LUMblank)
(§6) The curve of Log[concentration] versus cell viability was fitted using Prism 6 to calculate IC50 of sample for each cell line.

[2] = test system: HCCLM3; experiment: CellTiter-Glo cell viability, HCCLM3 (human high metastatic hepatoma cell); format: cell-based
Protocol: as §1, §2, §3, §4, §5, §6

[3] = test system: HT29; experiment: CellTiter-Glo cell viability, HT29 (human colon cancer cell line); format: cell-based
Protocol: as §1, §2, §3, §4, §5, §6

[4] = test system: T24; experiment: CellTiter-Glo cell viability, T24 (human bladder transitional cell carcinoma cell); format: cell-based
Protocol: as §1, §2, §3, §4, §5, §6

[5] = test system: H460; experiment: CellTiter-Glo cell viability, H460 (human large cell lung cancer cell line); format: cell-based
Protocol: as §1, §2, §3, §4, §5, §6

[6] = test system: HL-60; experiment: CellTiter-Glo cell viability, HL-60 (human leukemic cell line); format: cell-based
Protocol: as §1, §2, §3, §4, §5, §6

[7] = test system: TF1-α; experiment: CellTiter-Glo cell viability, TF1-α (human erythroleukemia cell); format: cell-based
Protocol: as §1, §2, §3, §4, §5, §6

[8] = test system: SGC7901; experiment: CellTiter-Glo cell viability, SGC7901 (human gastric adenocarcinoma cell); format: cell-based
Protocol: as §1, §2, §3, §4, §5, §6

[9] = test system: A549; experiment: CellTiter-Glo cell viability, A549 (human non-small cell lung cancer cell); format: cell-based
Protocol: as §1, §2, §3, §4, §5, §6

[10] = test system: HCT116; experiment: CellTiter-Glo cell viability, HCT116 (human colon cancer cell); format: cell-based
Protocol: as §1, §2, §3, §4, §5, §6

[11] = test system: HCC1937; experiment: CellTiter-Glo cell viability, HCC1937 (human breast cancer cell); format: cell-based
Protocol: as §1, §2, §3, §4, §5, §6

[12] = test system: MDA-MB-231; experiment: CellTiter-Glo cell viability, MDA-MB-231 (human breast cancer cell); details: 72 hours, n=4, read-out: IC50 calculated based on the concentration of dihydroxyacetone
Protocol: as §1, §2, §3, §4, §5, §6

[13] = at pH 6.0; cited from earlier work

In the case of `N.N.[Cl][Pt][Cl]` [DDP, cis-diammine platinum dichloride, reference compound], the IC50 ([1]; SW480, 72 hours, n=4, read-out: IC50) is reported as 16.7 µM, the IC50 ([2]; HCCLM3, 72 hours, n=4, read-out: IC50) is reported as 183 µM and the IC50 ([3]; HT29, 72 hours, n=4, read-out: IC50) is reported as 48.6 µM. The IC50 ([4]; T24, 72 hours, n=4, read-out: IC50) was 6.22 µM, the IC50 ([5]; H460, 72 hours, n=4, read-out: IC50) was 1.67 µM and the IC50 ([6]; HL-60, 72 hours, n=4, read-out: IC50) was 1.82 µM. It also gave an IC50 ([7]; TF1-α, 72 hours, n=4, read-out: IC50) of 3.76 µM, an IC50 ([8]; SGC7901, 72 hours, n=4, read-out: IC50) of 24 µM and an IC50 ([9]; A549, 72 hours, n=4, read-out: IC50) of 4.1 µM. It also gave an IC50 ([10]; HCT116, 72 hours, n=4, read-out: IC50) of 22.9 µM and an IC50 ([11]; HCC1937, 72 hours, n=4, read-out: IC50) of 14.8 µM.

In the case of `O=C(CO)CO` [Dihydroxyacetone, 1,3-dihydroxyacetone], the IC50 ([1]; Homo sapiens, SW480, 72 h, read-out: IC50 calculated based on the concentration of dihydroxyacetone) is reported as 7950 µM, the IC50 ([2]; Homo sapiens, HCCLM3, 72 h, read-out: IC50 calculated based on the concentration of dihydroxyacetone) is reported as 5480 µM and the IC50 ([3]; Homo sapiens, HT-29, 72 h, read-out: IC50 calculated based on the concentration of dihydroxyacetone) is reported as 4370 µM. For the same compound, the IC50 ([4]; Homo sapiens, T-24, 72 h, read-out: IC50 calculated based on the concentration of dihydroxyacetone) was 7670 µM, the IC50 ([5]; Homo sapiens, NCI-H460, 72 h, read-out: IC50 calculated based on the concentration of dihydroxyacetone) was 3790 µM and the IC50 [12] was 7950 µM. It also gave an IC50 ([6]; Homo sapiens, HL-60, 72 h, read-out: IC50 calculated based on the concentration of dihydroxyacetone) of 2780 µM, an IC50 ([7]; Homo sapiens, TF-1, 72 h, read-out: IC50 calculated based on the concentration of dihydroxyacetone) of 4890 µM and an IC50 ([8]; Homo sapiens, SGC-7901, 72 h, read-out: IC50 calculated based on the concentration of dihydroxyacetone) of 3740 µM. The Stability [13] was “stable”, the IC50 ([9]; Homo sapiens, A549, 72 h, read-out: IC50 calculated based on the concentration of dihydroxyacetone) was 4390 µM and the IC50 ([10]; Homo sapiens, HCT-116, 72 h, read-out: IC50 calculated based on the concentration of dihydroxyacetone) was 6820 µM. The IC50 ([11]; Homo sapiens, HCC1937, 72 h, read-out: IC50 calculated based on the concentration of dihydroxyacetone) was 10200 µM.
